Experimental data taken from patent US6303596A, “Use of taurolidine for treatment of leukemias” (priority 2000, dated 2001).
Read-outs that look alike come from different tables or passages of the source.

Columns and labels:
Type in all cases: cell-based, human
Jurkat cells = assay: trypan blue exclusion, Jurkat; conditions: 25 μg/ml taurolidine
Experimental: FIGS. 9A and 9B depict cell viability and growth rates for Jurkat cell line following taurolidine treatment, in terms of % trypan blue negative cells and % cell number, respectively. Cells were treated with various concentrations of taurolidine for 4 hours in AIM-V+0.01% BCS. After aliquots were collected for LDH assay, the remainder of the culture was rinsed in HBSS and resuspended in RPMI+10% BCS without taurolidine. Counts of trypan blue-negative cells (FIG. 9A), and total cell number (FIG. 9B), were recorded daily thereafter (with the measurement at Day 1 being made immediately after the 4 hour taurolidine treatment). Conditions were: no treatment (open circles); 25 μg/ml taurolidine (closed circles); 50 μg/ml taurolidine (open squares); 100 μg/ml taurolidine (closed squares); and vehicle alone (closed triangles). Doubling times were determined under each condition, and expressed as a percentage of the rate of doubling of untreated cells. These values are located to the right of the growth curves in (FIG. 9B). […]
HL-60 cells treated with 50 μl taurolidine. In these samples, LDH present in the culture medium was 8.3±2.3% of that released by completely lysed cells, compared with 2.3±0.8% measured in control cultures. […] After 4 hour treatment, cells were rinsed and returned to growth medium and monitored for viability and growth over the following 3 days. […]

[1] = TUNEL / propidium iodide flow cytometry, PBMC all cells, culture medium; conditions: human, pbmc, PBMC all cells, 6 h, mean ± SD of two experiments, read-out: % Propidium Iodide Positive
Experimental: (§1) FIG. 14A and FIG. 14B are terminal deoxytransferase-mediated deoxyuridine-triphosphate-biotin nick end labeling assay (TUNEL) analyses of control cells and taurolidine-treated PBMC, respectively. Cells were incubated with 100 μg/ml taurolidine for six hours and processed for TUNEL analysis as given below. Parallel samples were stained with FITC-conjugated anti-CD14 and propidium iodide (PI) as described below. Ten thousand events were recorded per sample. TUNEL signal (x-axis) is a measure of DNA fragmentation, which FSC (y-axis) is related to cell size. TUNEL-negative lymphocytes are bounded by the rectangle R1, while TUNEL-negative monocytes (CD14 positive cells) are bounded by the rectangle R2. The vertical line indicates demarcation between TUNEL-negative and TUNEL-positive cells. There were minimal numbers of PI-positive cells in the six hour samples (see Table IV).
(§2) In the second method, DNA fragmentation was detected via TUNEL assay according to the manufacturer's instructions. With this methodology, 2×10^6 cells were fixed with 2% paraformaldehyde, permeabilized with 0.1% Triton X-100/0.1% citrate, incubated at 37° C. with terminal deoxynucleotidyl transferase and FITC-dUTP, rinsed and analyzed by flow cytometry. Enhanced FITC signal indicates apoptosis-specific DNA fragmentation. Gavriali, et al, "Identification of programmed cell death in situ via specific labeling of nuclear DNA fragmentation," J Cell Biol 119:493 (1992). Parallel aliquots of unfixed cells were treated with PI and FITC-conjugated anti-CD14 and analyzed by flow cytometry, in order to identify cells with permeable cell membranes (since PI binds to DNA but is excluded from cells with intact plasma membranes) and also to determine the cell-specificity of the apoptotic signal.
(§3) A Becton-Dickinson FACSCalibur instrument was used for flow cytometric analysis of cells. Assessment of cell diameter (forward scatter; FCS) and granularity (side scatter; SSC).was carried out on unfixed cells. Discrimination between lymphocytes and monocytes was made possible by their characteristic differences in FSC and SSC, and confirmed by staining monocytes with FITC-labeled anti-CD14 antibodies and lymphocytes with a combination of FITC-conjugated anti-CD3 and PE-conjugated anti-CD19. After incubation with taurolidine (with or without concomitant LPS treatment), cells were rinsed twice in phosphate-buffered saline containing 0.1% bovine serum albumin (PBSA) and 1×10^6 cells were resuspended in 0.1 ml PBSA. After 5 μl FITC-conjugated anti-CD14 was added, cells were incubated in the dark on ice for 15 minutes and then centrifuged at 250×g. Cells were resuspended in 500 μl PBSA containing 5 μg/ml PI and subjected to flow cytometry.
(§4) Consequently, TUNEL analysis was performed on PBMC at 3, 6, or 24 hours after treatment with 25 to 100 μg/ml taurolidine. Aliquots of harvested cells were also labeled with FITC-conjugated anti-CD14 antibodies and PI, which allowed identification of monocytes (CD14-positive cells) and cells with damaged cell membranes (PI-positive cells). […] Thus, nearly 75% of the monocytes were TUNEL-positive following treatment with 100 μg/ml taurolidine for six hours. Confirmation that the TUNEL-positive cells were monocytes was obtained by staining with FITC-conjugated anti-CD14.
(§5) ^a Analysis by flow cytometry after staining cells with FITC-conjugated
(§6) anti-CD14 and PI, and processing for TUNEL. Data are mean ± SD of two

PBMC = assay: as above; conditions: PBMC
Experimental: as §1, §2, §3, §4, §5, §6

Compound: O=S1(=O)CCN(CN2CCS(=O)(=O)NC2)CN1 [taurolidine, 4,4'-methylenebis(perhydro-1,2,4-thiadiazin 1,1-dioxide)]
- trypan blue staining after treatment (Jurkat cells): did not show an increase in trypan blue staining
- cytotoxicity at 6 h ([1]; 25 μg/ml): 9 ± 3.2%
- cytotoxicity at 6 h ([1]; 50 μg/ml): 12.2 ± 5.6%
- cytotoxicity at 6 h ([1]; 100 μg/ml): 9 ± 3.5%
- TUNEL-positive PBMC (PBMC; 100 μg/ml, 6 h): substantial population of TUNEL-positive cells
- TUNEL-positive PBMC (PBMC; 3 h incubation): relatively few
- PI-positive cells versus control (PBMC; taurolidine, 6 h): equivalently low levels of PI-positive cells
